This assay deals with T1, hMAGL (Homo sapiens, UniProt Q99685).
T1 sequence (Q99685 1-303): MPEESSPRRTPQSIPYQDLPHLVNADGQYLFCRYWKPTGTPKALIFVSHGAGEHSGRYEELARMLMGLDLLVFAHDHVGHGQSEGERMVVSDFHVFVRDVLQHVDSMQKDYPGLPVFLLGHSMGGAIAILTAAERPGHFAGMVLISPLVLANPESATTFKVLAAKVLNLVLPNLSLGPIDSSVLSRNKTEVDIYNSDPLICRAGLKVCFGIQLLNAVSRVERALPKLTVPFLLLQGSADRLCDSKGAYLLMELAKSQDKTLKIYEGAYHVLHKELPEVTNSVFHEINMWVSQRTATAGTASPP
The assay is described as follows: 2-AG assay: MAGL inhibition, hydrolysis of 2-arachidonoylglycerol to arachidonic acid followed by mass spectrometry. The assay is classed as biochemical. The method, boiled down:
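MAGL preincubated with compound 15 min at RT in 50 mM Tris, 1 mM EDTA, 0.01% Tween-20, 2.5% DMSO; reaction started with 8 μM 2-AG (final), […], 30 min at RT. Quenched with acetonitrile containing d8-arachidonic acid; arachidonic acid quantified by RapidFire SPE-triple quad MS as arachidonic acid/d8 ratio.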
For orientation: IC50 means the concentration needed to halve the response being measured. With `O=C(N1CC2(CC(Cn3nccc3C3CC3)C2)C1)N1CC2(CC(n3cnc(C4CC4)n3)C2)C1` [Example 355, [6-[(5-cyclopropylpyrazol-1-yl)methyl]-2-azaspiro[3.3]heptan-2-yl]-[6-(3-cyclopropyl-1,2,4-triazol-1-yl)-2-azaspiro[3.3]heptan-2-yl]methanone], half-maximal inhibition (IC50) was put at 0.11 nM.
To `O=C(N1CC2(CC(Cn3ccnc3C(F)(F)F)C2)C1)N1CC2(CC(c3cc(C4CC4)n[nH]3)C2)C1` [Example 145, [6-(3-cyclopropyl-1H-pyrazol-5-yl)-2-azaspiro[3.3]heptan-2-yl]-[6-[[2-(trifluoromethyl)imidazol-1-yl]methyl]-2-azaspiro[3.3]heptan-2-yl]methanone] belongs 0.4 nM; to `O=C(N1CC2(CC(n3cnc(C4CC4)n3)C2)C1)N1CC2(CN(Cc3cn(CC(F)(F)F)nn3)C2)C1` [Example 108, [6-(3-cyclopropyl-1,2,4-triazol-1-yl)-2-azaspiro[3.3]heptan-2-yl]-[6-[[1-(2,2,2-trifluoroethyl)triazol-4-yl]methyl]-2,6-diazaspiro[3.3]heptan-2-yl]methanone], 735 nM; to `O=C(N1CC2(CC(n3cnc(C(F)F)n3)C2)C1)N1CC2(CN(Cc3cc(C(F)(F)F)n[nH]3)C2)C1` [Example 311, [6-[3-(difluoromethyl)-1,2,4-triazol-1-yl]-2-azaspiro[3.3]heptan-2-yl]-[6-[[3-(trifluoromethyl)-1H-pyrazol-5-yl]methyl]-2,6-diazaspiro[3.3]heptan-2-yl]methanone], 190 nM.
To `Cc1onc(C2CC2)c1CN1CC2(C1)CN(C(=O)N1CC3(CC(n4cnc(C(F)(F)F)n4)C3)C1)C2` [Example 267, [6-[(3-cyclopropyl-5-methyl-isoxazol-4-yl)methyl]-2,6-diazaspiro[3.3]heptan-2-yl]-[6-[3-(trifluoromethyl)-1,2,4-triazol-1-yl]-2-azaspiro[3.3]heptan-2-yl]methanone] belongs 66.6 nM; to `O=C(N1CC2(CC(Cc3cnn(CC(F)(F)F)n3)C2)C1)N1CC2(CC(n3cnc(C4CC4)n3)C2)C1` [Example 350, [6-(3-cyclopropyl-1,2,4-triazol-1-yl)-2-azaspiro[3.3]heptan-2-yl]-[6-[[2-(2,2,2-trifluoroethyl)triazol-4-yl]methyl]-2-azaspiro[3.3]heptan-2-yl]methanone], 0.92 nM; to `O=C(N1CC2(CC(n3cnc(C(F)(F)F)n3)C2)C1)N1CC2(CN(Cc3ccnn3C(F)(F)F)C2)C1` [Example 225, [6-[[2-(trifluoromethyl)pyrazol-3-yl]methyl]-2,6-diazaspiro[3.3]heptan-2-yl]-[6-[3-(trifluoromethyl)-1,2,4-triazol-1-yl]-2-azaspiro[3.3]heptan-2-yl]methanone], 146 nM.
As for `Cc1nn(CC(F)(F)F)cc1CN1CC2(C1)CN(C(=O)N1CC3(CC(n4cnc(C5CC5)n4)C3)C1)C2` [Example 113, [6-(3-cyclopropyl-1,2,4-triazol-1-yl)-2-azaspiro[3.3]heptan-2-yl]-[6-[[3-methyl-1-(2,2,2-trifluoroethyl)pyrazol-4-yl]methyl]-2,6-diazaspiro[3.3]heptan-2-yl]methanone], the IC50 is 133 nM.
In the case of `O=C(N1CC2(CC(n3cnc(C4CC4)n3)C2)C1)N1CC2(CN(Cc3noc(C(F)(F)F)n3)C2)C1` [Example 323, [6-(3-cyclopropyl-1,2,4-triazol-1-yl)-2-azaspiro[3.3]heptan-2-yl]-[6-[[5-(trifluoromethyl)-1,2,4-oxadiazol-3-yl]methyl]-2,6-diazaspiro[3.3]heptan-2-yl]methanone], 36.3 nM corresponded to half-maximal inhibition (IC50).
To `O=C(N1CC2(CC(c3cc(C4CC4)n[nH]3)C2)C1)N1CC2(CN(Cc3ncc(C(F)(F)F)s3)C2)C1` [Example 147, [6-(3-cyclopropyl-1H-pyrazol-5-yl)-2-azaspiro[3.3]heptan-2-yl]-[6-[[5-(trifluoromethyl)thiazol-2-yl]methyl]-2,6-diazaspiro[3.3]heptan-2-yl]methanone] belongs 1.04 nM; to `Cn1ncc(OC2CC3(C2)CN(C(=O)N2CC4(CC(n5cnc(C(F)(F)F)n5)C4)C2)C3)c1C(F)(F)F` [Example 246, [6-[1-methyl-5-(trifluoromethyl)pyrazol-4-yl]oxy-2-azaspiro[3.3]heptan-2-yl]-[6-[3-(trifluoromethyl)-1,2,4-triazol-1-yl]-2-azaspiro[3.3]heptan-2-yl]methanone], 3.98 nM.
To `O=C(N1CC2(CC(n3cnc(C4CC4)n3)C2)C1)N1CC2(CN(Cc3nnc(C(F)(F)F)s3)C2)C1` [Example 83, [6-(3-cyclopropyl-1,2,4-triazol-1-yl)-2-azaspiro[3.3]heptan-2-yl]-[6-[[5-(trifluoromethyl)-1,3,4-thiadiazol-2-yl]methyl]-2,6-diazaspiro[3.3]heptan-2-yl]methanone] belongs 66.8 nM; to `O=C(N1CC2(CC(Cc3nsc(C(F)(F)F)n3)C2)C1)N1CC2(CC(n3cnc(C4CC4)n3)C2)C1` [Example 21, [6-(3-cyclopropyl-1,2,4-triazol-1-yl)-2-azaspiro[3.3]heptan-2-yl]-[6-[[5-(trifluoromethyl)-1,2,4-thiadiazol-3-yl]methyl]-2-azaspiro[3.3]heptan-2-yl]methanone], 0.1 nM.
As to `Cn1ccnc1CN1CC2(C1)CN(C(=O)N1CC3(CC(n4cnc(C5CC5)n4)C3)C1)C2` [Example 308, [6-(3-cyclopropyl-1,2,4-triazol-1-yl)-2-azaspiro[3.3]heptan-2-yl]-[6-[(1-methylimidazol-2-yl)methyl]-2,6-diazaspiro[3.3]heptan-2-yl]methanone], the half-inhibitory concentration (IC50) worked out at 110 nM.
In turn, `N=S(=O)(c1cnn(CC2CC3(C2)CN(C(=O)N2CC4(CC(n5cnc(C(F)F)n5)C4)C2)C3)c1)C(F)(F)F` (stereo not drawn) [Example 324, [6-[3-(difluoromethyl)-1,2,4-triazol-1-yl]-2-azaspiro[3.3]heptan-2-yl]-[6-[[4-(trifluoromethylsulfonimidoyl)pyrazol-1-yl]methyl]-2-azaspiro[3.3]heptan-2-yl]methanone] showed an IC50 of 25.6 nM.
Regarding `O=C(N1CC2(CC(n3cnc(C4CC4)n3)C2)C1)N1CC2(CN(Cc3snnc3C3CCC3)C2)C1` [Example 77, [6-[(4-cyclobutylthiadiazol-5-yl)methyl]-2,6-diazaspiro[3.3]heptan-2-yl]-[6-(3-cyclopropyl-1,2,4-triazol-1-yl)-2-azaspiro[3.3]heptan-2-yl]methanone], the IC50 amounted to 1.62 nM.
Consider `O=C(N1CC2(CC(c3cc(C4CC4)n[nH]3)C2)C1)N1CC2(CN(Cc3cc(C(F)(F)F)ns3)C2)C1` [Example 151, [6-(3-cyclopropyl-1H-pyrazol-5-yl)-2-azaspiro[3.3]heptan-2-yl]-[6-[[3-(trifluoromethyl)isothiazol-5-yl]methyl]-2,6-diazaspiro[3.3]heptan-2-yl]methanone], for which it took 2.12 nM to reach half-maximal inhibition (IC50).
To `Cc1cc(C(F)(F)F)nn1CC1CC2(C1)CN(C(=O)N1CC3(CC(n4cnc(C5CC5)n4)C3)C1)C2` [Example 69, [6-(3-cyclopropyl-1,2,4-triazol-1-yl)-2-azaspiro[3.3]heptan-2-yl]-[6-[[5-methyl-3-(trifluoromethyl)pyrazol-1-yl]methyl]-2-azaspiro[3.3]heptan-2-yl]methanone] belongs 4.09 nM; to `O=C(N1CC2(CC(Cc3n[nH]cc3C(F)(F)F)C2)C1)N1CC2(CC(n3cnc(C(F)(F)F)n3)C2)C1` [Example 129, [6-[[4-(trifluoromethyl)-1H-pyrazol-3-yl]methyl]-2-azaspiro[3.3]heptan-2-yl]-[6-[3-(trifluoromethyl)-1,2,4-triazol-1-yl]-2-azaspiro[3.3]heptan-2-yl]methanone], 0.31 nM.
For the molecule `O=C(N1CC2(CCN(Cc3cc(C(F)(F)F)on3)CC2)C1)N1CC2(CC(n3cnc(C(F)(F)F)n3)C2)C1` [Example 79, [7-[[5-(trifluoromethyl)isoxazol-3-yl]methyl]-2,7-diazaspiro[3.5]nonan-2-yl]-[6-[3-(trifluoromethyl)-1,2,4-triazol-1-yl]-2-azaspiro[3.3]heptan-2-yl]methanone], the IC50 came out at 71.4 nM.
To `O=C(N1CC2(CC(n3cnc(C(F)(F)F)n3)C2)C1)N1CC2(CN(Cc3nnnn3CC(F)(F)F)C2)C1` [Example 197, [6-[[1-(2,2,2-trifluoroethyl)tetrazol-5-yl]methyl]-2,6-diazaspiro[3.3]heptan-2-yl]-[6-[3-(trifluoromethyl)-1,2,4-triazol-1-yl]-2-azaspiro[3.3]heptan-2-yl]methanone] belongs 445 nM; to `O=C(N1CC2(CC(n3cnc(C(F)F)n3)C2)C1)N1CC2(CN(Cc3cn[nH]c3C(F)(F)F)C2)C1` [Example 310, [6-[3-(difluoromethyl)-1,2,4-triazol-1-yl]-2-azaspiro[3.3]heptan-2-yl]-[6-[[5-(trifluoromethyl)-1H-pyrazol-4-yl]methyl]-2,6-diazaspiro[3.3]heptan-2-yl]methanone], 344 nM; to `O=C(N1CC2(CC(n3cnc(C4CC4)n3)C2)C1)N1CC2(CN(Cc3cc(C(F)(F)F)on3)C2)C1` [Example 190, [6-(3-cyclopropyl-1,2,4-triazol-1-yl)-2-azaspiro[3.3]heptan-2-yl]-[6-[[5-(trifluoromethyl)isoxazol-3-yl]methyl]-2,6-diazaspiro[3.3]heptan-2-yl]methanone], 7.53 nM.
Take `CCc1nsc(CN2CC3(C2)CN(C(=O)N2CC4(CC(n5cnc(C(F)(F)F)n5)C4)C2)C3)n1` [Example 286, [6-[(3-ethyl-1,2,4-thiadiazol-5-yl)methyl]-2,6-diazaspiro[3.3]heptan-2-yl]-[6-[3-(trifluoromethyl)-1,2,4-triazol-1-yl]-2-azaspiro[3.3]heptan-2-yl]methanone]: half-maximal inhibition (IC50) required 120 nM.

Values taken from patent US20260374756A1, “HETEROCYCLIC COMPOUNDS AS INHIBITORS OF MONOACYLGLYCEROL LIPASE (MAGL)” (Hoffmann-La Roche Inc., priority 2022, published 2026).
